Like-named read-outs stand apart in the source and are kept apart here.
Key:
[1] = molecular target: human recombinant BACE2 (Homo sapiens (Human), UniProt Q9Y5Z0); assay: In vitro enzymatic BACE2 FRET assay; format: biochemical; conditions: read-out: IC50 IP (μM) BACE2 enzyme
Summary of the method: (§1)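 Fluorescence from cleavage of a quenched peptide spanning the BACE site (50 nM) was read at 488 nm excitation, 590 nm emission. Purified enzyme (Ni-NTA) and compound reacted for one hour before a Tris stop shifted pH to neutral.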

[2] = molecular target: Recombinant Cat D (Homo sapiens (Human), UniProt P07339); assay: In vitro enzymatic Cathepsin D (Cat D) FRET assay; format: biochemical; conditions: read-out: IC50 IP (μM) CatD
Summary of the method: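 Assay pH is 3.5 (0.05 M citrate, 5 mM CHAPS, 10% DMSO final) with Cat D from CHO cells. A 20 nM quenched peptide substrate is cleaved over one hour; the reaction is ended with Tris and read by fluorescence (ex 500, em 580 nm).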

[3] = test system: Aβ40 in conditioned medium of cells stably expressing Amyloid Precursor Protein (APP); assay: In vitro BACE-1 cell-based assay (Aβ40 sandwich ELISA); conditions: read-out: IC50 IP (μM) BACE1 cell
Summary of the method: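 Aβ40 in supernatants measured by time-resolved fluorescence sandwich ELISA, with pAb40 as capture and biotin-6E10 as detector antibody, each incubated at 4 °C.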

[4] = molecular target: human recombinant BACE1 (Homo sapiens (Human), UniProt P56817); assay: In vitro enzymatic BACE1 FRET assay; format: biochemical; conditions: read-out: IC50 IP (μM) BACE1 enzyme
Summary of the method: as §1

human recombinant BACE2, sequence (Q9Y5Z0 63-518): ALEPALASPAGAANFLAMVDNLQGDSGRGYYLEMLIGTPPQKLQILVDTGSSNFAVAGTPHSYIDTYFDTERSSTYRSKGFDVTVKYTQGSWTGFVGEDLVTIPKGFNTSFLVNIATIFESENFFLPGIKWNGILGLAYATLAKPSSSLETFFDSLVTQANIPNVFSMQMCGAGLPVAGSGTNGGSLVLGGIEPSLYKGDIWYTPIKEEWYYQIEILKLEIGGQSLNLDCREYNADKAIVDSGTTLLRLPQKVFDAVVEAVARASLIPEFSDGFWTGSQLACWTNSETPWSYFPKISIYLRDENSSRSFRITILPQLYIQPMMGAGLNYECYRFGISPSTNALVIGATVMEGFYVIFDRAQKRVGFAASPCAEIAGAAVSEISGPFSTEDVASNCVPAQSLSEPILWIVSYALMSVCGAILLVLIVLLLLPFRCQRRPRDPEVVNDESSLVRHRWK
Recombinant Cat D, sequence (P07339 65-412): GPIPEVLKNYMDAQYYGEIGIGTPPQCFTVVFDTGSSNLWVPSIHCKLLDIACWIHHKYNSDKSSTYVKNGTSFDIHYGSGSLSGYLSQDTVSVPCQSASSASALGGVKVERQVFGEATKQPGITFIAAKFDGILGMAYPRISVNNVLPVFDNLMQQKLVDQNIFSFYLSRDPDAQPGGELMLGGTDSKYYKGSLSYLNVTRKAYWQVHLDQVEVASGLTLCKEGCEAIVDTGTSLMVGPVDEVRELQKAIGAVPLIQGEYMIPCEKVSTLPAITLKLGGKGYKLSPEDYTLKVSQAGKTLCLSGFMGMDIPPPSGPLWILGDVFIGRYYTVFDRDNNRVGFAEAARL
human recombinant BACE1, sequence (P56817 46-501): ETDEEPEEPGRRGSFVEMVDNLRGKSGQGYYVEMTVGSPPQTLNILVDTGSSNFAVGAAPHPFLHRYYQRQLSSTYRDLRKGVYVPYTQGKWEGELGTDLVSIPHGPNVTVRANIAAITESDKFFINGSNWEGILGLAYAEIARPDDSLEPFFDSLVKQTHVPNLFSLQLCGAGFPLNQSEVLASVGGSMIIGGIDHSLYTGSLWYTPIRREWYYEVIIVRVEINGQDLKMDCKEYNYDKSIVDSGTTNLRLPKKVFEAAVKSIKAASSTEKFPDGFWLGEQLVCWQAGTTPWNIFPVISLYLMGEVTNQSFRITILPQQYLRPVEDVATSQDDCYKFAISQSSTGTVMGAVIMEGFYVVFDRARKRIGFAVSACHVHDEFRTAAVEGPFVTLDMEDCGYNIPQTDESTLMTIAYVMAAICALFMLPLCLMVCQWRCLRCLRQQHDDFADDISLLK

IC50 [1] [µM] | IC50 [2] [µM] | IC50 [3] [µM] | IC50 [4] [µM] | IC50 ([1]; BACE2 FRET enzyme assay) [µM] | IC50 ([2]; Cathepsin D FRET enzyme assay) [µM] | IC50 ([3]; BACE1 cell-based assay) [µM] | IC50 ([4]; BACE1 FRET enzyme assay) [µM] | Structure (SMILES)
0.061 | 255 | 0.000566 | 0.00048 | – | – | – | – | C#C[C@H](C)Oc1cnc(C(=O)Nc2ccc(F)c([C@@]3(C)N=C(N)S[C@@]4(C(=O)NC5CC5)C[C@H]43)c2)cn1 [Example 993, (1S,5S,6S)-3-amino-N-cyclopropyl-5-(2-fluoro-5-(((5-(((1S)-1-methyl-2-propyn-1-yl)oxy)-2-pyrazinyl)carbonyl)amino)phenyl)-5-methyl-2-thia-4-azabicyclo[4.1.0]hept-3-ene-1-carboxamide]
0.00387 | > 400 | 0.00308 | 0.0014 | – | – | – | – | C#C[C@H](C)Oc1cnc2c(Nc3cc(F)c(F)c([C@@]4(C)N=C(N)S[C@@]5(C(=O)N(C)C)C[C@H]54)c3)nccc2n1 [Example 925, (1S,5S,6S)-3-amino-5-(2,3-difluoro-5-((2-(((1S)-1-methyl-2-propyn-1-yl)oxy)pyrido[3,4-b]pyrazin-5-yl)amino)phenyl)-N,N,5-trimethyl-2-thia-4-azabicyclo[4.1.0]hept-3-ene-1-carboxamide]
0.0541 | 959 | 0.00144 | 0.00139 | – | – | – | – | COC[C@]12C[C@H]1[C@@](C)(c1cc(NC(=O)c3cnc(OCc4noc(C)n4)cn3)cc(F)c1F)N=C(N)S2 [Example 1013, N-(3-((1S,5S,6S)-3-amino-1-(methoxymethyl)-5-methyl-2-thia-4-azabicyclo[4.1.0]hept-3-en-5-yl)-4,5-difluorophenyl)-5-((5-methyl-1,2,4-oxadiazol-3-yl)methoxy)-2-pyrazinecarboxamide]
0.148 | 710 | 0.0197 | 0.0113 | – | – | – | – | C#C[C@H](C)Oc1cnc(C(=O)Nc2ccc(F)c([C@@]3(C)N=C(N)S[C@@]4(COC)C[C@H]43)c2)c(C)n1 [Example 621, N-(3-((1S,5S,6S)-3-amino-1-(methoxymethyl)-5-methyl-2-thia-4-azabicyclo[4.1.0]hept-3-en-5-yl)-4-fluorophenyl)-3-methyl-5-(((1S)-1-methyl-2-propyn-1-yl)oxy)-2-pyrazinecarboxamide]
0.023 | 224 | 0.00121 | 0.00143 | – | – | – | – | CN(C)C(=O)/C=C/[C@]12C[C@H]1[C@@](CF)(c1cc(Nc3nccc4nc(OCc5ncco5)cnc34)ccc1F)N=C(N)S2 [Example 769, (2E)-3-((1R,5S,6S)-3-amino-5-(fluoromethyl)-5-(2-fluoro-5-((2-(1,3-oxazol-2-ylmethoxy)pyrido[3,4-b]pyrazin-5-yl)amino)phenyl)-2-thia-4-azabicyclo[4.1.0]hept-3-en-1-yl)-N,N-dimethyl-2-propenamide]
0.0355 | 373 | 0.000857 | 0.000633 | – | – | – | – | C#CCOc1cnc2c(Nc3cc(F)c(F)c([C@@]4(C)N=C(N)S[C@@]5(C(N)=O)C[C@H]54)c3)ncnc2c1 [Example 917, (1S,5S,6S)-3-amino-5-(2,3-difluoro-5-((7-(2-propyn-1-yloxy)pyrido[3,2-d]pyrimidin-4-yl)amino)phenyl)-5-methyl-2-thia-4-azabicyclo[4.1.0]hept-3-ene-1-carboxamide]
0.046 | > 400 | 0.0143 | 0.000274 | – | – | – | – | C[C@]1(c2cc(Nc3ncnc4cc(OCc5ncco5)cnc34)cnc2F)N=C(N)S[C@]2(CO)[C@H]1C2(F)F [Example 664, ((1S,5S,6R)-3-amino-7,7-difluoro-5-(2-fluoro-5-((7-(1,3-oxazol-2-ylmethoxy)pyrido[3,2-d]pyrimidin-4-yl)amino)-3-pyridinyl)-5-methyl-2-thia-4-azabicyclo[4.1.0]hept-3-en-1-yl)methanol]
– | – | – | – | 0.0174 | 1490 | 0.00271 | 0.00095 | C#CCOc1cnc(C(=O)Nc2ccc(F)c([C@@]3(CF)N=C(N)S[C@@]4(CO)C[C@H]43)c2)c(C)n1 [Example 76, N-(3-((1S,5S,6S)-3-amino-5-(fluoromethyl)-1-(hydroxymethyl)-2-thia-4-azabicyclo[4.1.0]hept-3-en-5-yl)-4-fluorophenyl)-3-methyl-5-(2-propyn-1-yloxy)-2-pyrazinecarboxamide]
0.0245 | 792 | 0.0197 | 0.000577 | – | – | – | – | C#CCOc1cnc2c(Nc3ccc(F)c([C@@]4(CF)N=C(N)S[C@@]5(c6cnco6)C[C@@H]45)c3)ncnc2c1 [Example 782, N-(3-((1S,5S,6S)-3-amino-5-(fluoromethyl)-1-(1,3-oxazol-5-yl)-2-thia-4-azabicyclo[4.1.0]hept-3-en-5-yl)-4-fluorophenyl)-7-(2-propyn-1-yloxy)pyrido[3,2-d]pyrimidin-4-amine]
0.0371 | 605 | 0.00204 | 0.000871 | – | – | – | – | C[C@]1(c2cc(Nc3nccc4nc(OCc5ncco5)cnc34)cnc2F)N=C(N)S[C@@]2(CF)C[C@H]21 [Example 602, N-(5-((1S,5S,6S)-3-amino-1-(fluoromethyl)-5-methyl-2-thia-4-azabicyclo[4.1.0]hept-3-en-5-yl)-6-fluoro-3-pyridinyl)-2-(1,3-oxazol-2-ylmethoxy)pyrido[3,4-b]pyrazin-5-amine]
0.641 | > 400 | 0.406 | 0.179 | – | – | – | – | COC[C@]12C[C@H]1[C@@](C)(c1cc(Nc3nccc4cc(OCc5cnco5)cnc34)cc(F)c1F)N=C(N)S2 [Example 726, N-(3-((1S,5S,6S)-3-amino-1-(methoxymethyl)-5-methyl-2-thia-4-azabicyclo[4.1.0]hept-3-en-5-yl)-4,5-difluorophenyl)-3-(1,3-oxazol-5-ylmethoxy)-1,7-naphthyridin-8-amine]
– | – | – | – | < 0.00203 | 958 | 0.00851 | 0.00152 | C[C@]1(c2cc(Nc3nccc4cc(Cl)cnc34)cc(F)c2F)N=C(N)S[C@@]2(CO)C[C@H]21 [Example 30, ((1S,5S,6S)-3-amino-5-(5-((3-chloro-1,7-naphthyridin-8-yl)amino)-2,3-difluorophenyl)-5-methyl-2-thia-4-azabicyclo[4.1.0]hept-3-en-1-yl)methanol]
0.0125 | 954 | 0.000338 | 0.000776 | – | – | – | – | C[C@]1(c2cc(NC(=O)c3cnc(OCC(F)(F)F)cn3)ccc2F)N=C(N)S[C@@]2(C(=O)N3CC[C@H](F)C3)C[C@H]21 [Example 992, N-(3-((1S,5S,6S)-3-amino-1-((S)-3-fluoropyrrolidine-1-carbonyl)-5-methyl-2-thia-4-azabicyclo[4.1.0]hept-3-en-5-yl)-4-fluorophenyl)-5-(2,2,2-trifluoroethoxy)pyrazine-2-carboxamide]
0.00251 | 1160 | 0.0148 | 0.00565 | – | – | – | – | Cc1cnnn1C[C@]12C[C@H]1[C@@](CF)(c1cc(NC(=O)c3ccc(Cl)cn3)ccc1F)N=C(N)S2 [Example 725, N-(3-((1S,5S,6S)-3-amino-5-(fluoromethyl)-1-((5-methyl-1H-1,2,3-triazol-1-yl)methyl)-2-thia-4-azabicyclo[4.1.0]hept-3-en-5-yl)-4-fluorophenyl)-5-chloro-2-pyridinecarboxamide]
0.00303 | 306 | 0.00533 | 0.00369 | – | – | – | – | C[C@]1(c2cc(Nc3nccc4cc(C#N)cnc34)cnc2F)N=C(N)S[C@@]2(C(F)F)C[C@@H]12 [Example 657, 8-((5-((1S,5S,6S)-3-amino-1-(difluoromethyl)-5-methyl-2-thia-4-azabicyclo[4.1.0]hept-3-en-5-yl)-6-fluoro-3-pyridinyl)amino)-1,7-naphthyridine-3-carbonitrile]
0.0782 | 587 | 0.00309 | 0.000943 | – | – | – | – | CNC(=O)[C@]12C[C@H]1[C@@](C)(c1cc(NC(=O)c3cnc(OCC(F)(F)F)cn3)cc(F)c1F)N=C(N)S2 [Example 701, (1S,5S,6S)-3-amino-5-(2,3-difluoro-5-(((5-(2,2,2-trifluoroethoxy)-2-pyrazinyl)carbonyl)amino)phenyl)-N,5-dimethyl-2-thia-4-azabicyclo[4.1.0]hept-3-ene-1-carboxamide]
0.255 | 292 | 0.0338 | 0.00203 | – | – | – | – | C[C@]1(c2cc(NC(=O)c3ccc(OCC(F)(F)C(F)F)cn3)ccc2F)N=C(N)S[C@]2(CO)[C@H]1C2(F)F [Example 751, N-(3-((1S,5S,6R)-3-amino-7,7-difluoro-1-(hydroxymethyl)-5-methyl-2-thia-4-azabicyclo[4.1.0]hept-3-en-5-yl)-4-fluorophenyl)-5-(2,2,3,3-tetrafluoropropoxy)-2-pyridinecarboxamide]
0.00839 | 1090 | 0.00155 | 0.00155 | – | – | – | – | CN(C)C(=O)[C@]12C[C@H]1[C@@](C)(c1cc(NC(=O)c3cnc(OCC(F)(F)C(F)F)cn3)cc(F)c1F)N=C(N)S2 [Example 922, (1S,5S,6S)-3-amino-5-(2,3-difluoro-5-(((5-(2,2,3,3-tetrafluoropropoxy)-2-pyrazinyl)carbonyl)amino)phenyl)-N,N,5-trimethyl-2-thia-4-azabicyclo[4.1.0]hept-3-ene-1-carboxamide]
